# From patent US20050277612A1, “Methods, compositions and compound assays for inhibiting amyloid-beta protein production” (priority 2004, published 2005)
# Legend:
# [1] = tested on: amyloid beta 1-42 levels in the conditioned medium of SH-SY5Y cells; test: Amyloid beta 1-42 ELISA after adenoviral knock down of SPHK2; assay type: cell-based; settings: SH-SY5Y cells co-infected with adenoviruses expressing APPwt and the KD sequence, compared to GL2 KD virus infected cells
# Protocol: Cells seeded in collagen-coated plates at a cell density of 15000 cells/well (384 well plate) in DMEM (10% FBS), are infected 24 h later with 1 μl or 0.2 μl of adenovirus (corresponding to an average multiplicity of infection (MOI) of 120 and 24 respectively). The following day, the virus is washed away and DMEM (25 mM Hepes; […]) is added to the cells. Amyloid-beta peptides are allowed to accumulate during 24 h. The ELISA plate is prepared by coating with a capture antibody (JRF/cAbeta42/26) (obtained from M Mercken, Johnson and Johnson Pharmaceutical Research and Development, B-2340 Beerse, Belgium) overnight in buffer 42 (Table 2) at a concentration of 2.5 μg/ml. The excess capture antibody is washed away the next morning with PBS and the ELISA plate is then blocked overnight with casein buffer (see Table 2) at 4° C. […] Following the removal of excess detection antibody by a wash with PBS-Tween20 and PBS, HRP activity is detected via addition of luminol substrate (Roche), which is converted into a chemiluminescent signal by the HRP enzyme. […]
# (§1) Adenoviral knock down constructs are used to transduce mouse, rat or human primary neuronal cells and/or cell lines (e.g. HEK293, SH-SY5Y, IMR-32, SK-N—SH, SK-N-MC, H4, CHO, COS, HeLa) stably over-expressing APPwt or not. […] In addition, RNA is isolated from these infected cells and SPHK2 RNA levels are determined via real time PCR. […]
# SPHK2 RNA = SPHK2 RNA levels via real time PCR in KD virus infected cells; assay type: cell-based, Homo Sapiens; settings: infected SH-SY5Y cells, normalized to household keeping genes (GAPDH)
# Source text: Upon identification of protein kinase involved of APP processing, it is essential to evaluate whether the kinase is expressed in the tissue and cells of interest. This can be achieved by measuring RNA and/or protein levels. In recent years, RNA levels are being quantified through real time PCR technologies, whereby the RNA is first transcribed to cDNA and then the amplification of the cDNA of interest is monitored during a PCR reaction. The amplification plot and the resulting Ct value are indicators for the amount of RNA present in the sample. To assess whether SPHK cDNA is expressed in the human brain, real time PCR with GAPDH specific primers and specific primers for polynucleotides coding for the SPHK polypeptide (Table 3) is performed on human total brain, human cerebral cortex, and human hippocampal total RNA (BD Biosciences). GAPDH RNA is detected with a Taqman probe, while for the polynucleotides of the invention SybrGreen is used. 40 ng of RNA is transcribed to DNA using the MultiScribe Reverse Transcriptase (50 U/μl) enzyme (Applied BioSystems). […]
# as §1
sequence,measurement,setting,value
ACTTCTGCATCTACACCTACC [SEQ ID NO: 6],amyloid beta 1-42 levels in the conditioned medium,[1],reduction
same,SPHK2 RNA levels,SPHK2 RNA,reduced
